Test results published in US9125913B2, “Bcl-2-selective apoptosis-inducing agents for the treatment of cancer and immune diseases” (AbbVie Inc., priority 2008, dated 2015).

What was measured:
[1] = test system: GST-Bcl-2; assay: TR-FRET binding assay, Bcl-2; details: TR-FRET Ki values
How it was run: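 Ki values come from Wang's competitive-binding equation applied to TR-FRET signal (excitation 340/35 nm; emission 520/525 nm F-Bak peptide, 495/510 nm Tb antibody). Protein, probe and antibody incubated with compound 3 h at room temperature; dilution series began at 50 μM as 2× stock in 10% DMSO.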

[2] = test system: FL5.12/Bcl-2 cells; assay: FL5.12/Bcl-2 cell viability assay; assay type: cell-based, murine; details: ratio of canine platelet EC50 to FL5.12/Bcl-2 EC50
From the text: FL5.12 is an IL-3 dependent prolymphocytic murine cell line that undergoes apoptosis upon IL-3 withdrawal as a result of the upregulation of pro-apoptotic Bcl-2 proteins such as Bim and Puma. Stable overexpression of anti-apoptotic Bcl-2 protein (FL5.12/Bcl-2) protects against apoptosis induced by IL-3 withdrawal by sequestration of Bim and Puma. […] The ability of compounds to kill FL5.12/Bcl-2 cells upon IL-3 withdrawal is a direct measure of the compounds' ability to inhibit anti-apoptotic Bcl-2 protein function.
Wild type FL5.12/Bcl-2 overexpressing stable transfectants were cultured in RPMI-1640 supplemented with 2 mM L-glutamine, 10% FBS, 1 mM sodium pyruvate, 2 mM HEPES, 1% penicillin/streptomycin (Invitrogen), 57 μM β-ME, and 10% WEHI-3B conditioned medium (source of IL-3) and maintained at 37° C. containing 5% CO2. 1×10^6 cells/ml were washed 1×PBS and resuspended in medium not supplemented with 10% WEHI-3B for 48 hrs prior to cytotoxicity assays. Cells were then treated for an additional 24 hrs in the presence of various concentrations of the indicated compounds. Cell viability was assessed by CellTitre Glo assay (Promega Corp.) according to the manufacturer's recommendations.

Compound | Binding selectivity ratio (Bcl-XL Ki/Bcl-2 Ki) [1] | Selectivity Ratio (Platelet EC50/FL5.12/Bcl-2 EC50) [2]
CN(C)CCCOc1ccc(S(=O)(=O)NC(=O)c2ccc(N3CCN(CC4=C(c5ccc(Cl)cc5)CC(C)(C)CC4)CC3)cc2Oc2ccc3[nH]ccc3c2)cc1[N+](=O)[O-] [Example 100, 4-(4-{[2-(4-chlorophenyl)-4,4-dimethylcyclohex-1-en-1-yl]methyl}piperazin-1-yl)-N-({4-[3-(dimethylamino)propoxy]-3-nitrophenyl}sulfonyl)-2-(1H-indol-5-yloxy)benzamide] | 71.4 | 2029
CN1CCN(CCCNc2ccc(S(=O)(=O)NC(=O)c3ccc(N4CCN(CC5=C(c6ccc(Cl)cc6)CC(C)(C)CC5)CC4)cc3Oc3cccc4[nH]ccc34)cc2[N+](=O)[O-])CC1 [Example 99, 4-(4-{[2-(4-chlorophenyl)-4,4-dimethylcyclohex-1-en-1-yl]methyl}piperazin-1-yl)-2-(1H-indol-4-yloxy)-N-[(4-{[3-(4-methylpiperazin-1-yl)propyl]amino}-3-nitrophenyl)sulfonyl]benzamide] | 138.3 | 2440
CN(C)CCOc1ccc(-c2ccc(Cl)cc2)c(CN2CCN(c3ccc(C(=O)NS(=O)(=O)c4ccc(NCCCN5CCCC5)c([N+](=O)[O-])c4)c(Oc4ccccc4)c3)CC2)c1 [Example 121, 4-[4-({4′-chloro-4-[2-(dimethylamino)ethoxy]-1,1′-biphenyl-2-yl}methyl)piperazin-1-yl]-N-({3-nitro-4-[(3-pyrrolidin-1-ylpropyl)amino]phenyl}sulfonyl)-2-phenoxybenzamide] | 388 | 8
O=C(NS(=O)(=O)c1ccc(NCC2CCOCC2)c([N+](=O)[O-])c1)c1ccc(N2CCN(Cc3ccccc3-c3ccc(Cl)cc3)CC2)cc1Oc1ccc2[nH]ccc2c1 [Example 40, 4-{4-[(4′-chloro-1,1′-biphenyl-2-yl)methyl]piperazin-1-yl}-2-(1H-indol-5-yloxy)-N-({3-nitro-4-[(tetrahydro-2H-pyran-4-ylmethyl)amino]phenyl}sulfonyl)benzamide] | >1236.0 | >303
O=C(NS(=O)(=O)c1ccc(NCC2CCOCC2)c([N+](=O)[O-])c1)c1ccc(N2CCN(Cc3ccccc3-c3ccc(Cl)cc3)CC2)cc1Oc1cccc2[nH]ccc12 [Example 45, 4-{4-[(4′-chloro-1,1′-biphenyl-2-yl)methyl]piperazin-1-yl}-2-(1H-indol-4-yloxy)-N-({3-nitro-4-[(tetrahydro-2H-pyran-4-ylmethyl)amino]phenyl}sulfonyl)benzamide] | >797.1 | >360
CC1(C)CCC(CN2CCN(c3ccc(C(=O)NS(=O)(=O)c4ccc(NCCCN5CCCC5)c([N+](=O)[O-])c4)c(Oc4cccc5[nH]ccc45)c3)CC2)=C(c2cccc(F)c2)C1 [Example 72, 4-(4-{[2-(3-fluorophenyl)-4,4-dimethylcyclohex-1-en-1-yl]methyl}piperazin-1-yl)-2-(1H-indol-4-yloxy)-N-({3-nitro-4-[(3-pyrrolidin-1-ylpropyl)amino]phenyl}sulfonyl)benzamide] | 17.3 | >325
CC1(C)CCC(CN2CCN(c3ccc(C(=O)NS(=O)(=O)c4ccc(NCCCN5CCOCC5)c([N+](=O)[O-])c4)c(Oc4ccc5[nH]ccc5c4)c3)CC2)=C(c2ccc(Cl)cc2)C1 [Example 52, 4-(4-{[2-(4-chlorophenyl)-4,4-dimethylcyclohex-1-en-1-yl]methyl}piperazin-1-yl)-2-(1H-indol-5-yloxy)-N-({4-[(3-morpholin-4-ylpropyl)amino]-3-nitrophenyl}sulfonyl)benzamide] | 333.9 | >3164
CN(C)CCCNc1ccc(S(=O)(=O)NC(=O)c2ccc(N3CCN(CC4=C(c5ccc(Cl)cc5)CC(C)(C)CC4)CC3)cc2Oc2cccc3[nH]ccc23)cc1[N+](=O)[O-] [Example 57, 4-(4-{[2-(4-chlorophenyl)-4,4-dimethylcyclohex-1-en-1-yl]methyl}piperazin-1-yl)-N-[(4-{[3-(dimethylamino)propyl]amino}-3-nitrophenyl)sulfonyl]-2-(1H-indol-4-yloxy)benzamide] | 68.7 | 1077
CN(C)CCOc1ccc(-c2ccc(Cl)cc2)c(CN2CCN(c3ccc(C(=O)NS(=O)(=O)c4ccc(NCC5CCOCC5)c([N+](=O)[O-])c4)c(Oc4cccc5[nH]ccc45)c3)CC2)c1 [Example 125, 4-[4-({4′-chloro-4-[2-(dimethylamino)ethoxy]-1,1′-biphenyl-2-yl}methyl)piperazin-1-yl]-2-(1H-indol-4-yloxy)-N-({3-nitro-4-[(tetrahydro-2H-pyran-4-ylmethyl)amino]phenyl}sulfonyl)benzamide] | 3879 | 4719
CN1CCC(Nc2ccc(S(=O)(=O)NC(=O)c3ccc(N4CCN(CC5=C(c6ccc(Cl)cc6)CC(C)(C)CC5)CC4)cc3Oc3ccc4c(c3)CCCN4)cc2[N+](=O)[O-])CC1 [Example 23, 4-(4-{[2-(4-chlorophenyl)-4,4-dimethylcyclohex-1-en-1-yl]methyl}piperazin-1-yl)-N-({4-[(1-methylpiperidin-4-yl)amino]-3-nitrophenyl}sulfonyl)-2-(1,2,3,4-tetrahydroquinolin-6-yloxy)benzamide] | 25.3 | >35
CN1CCC(Nc2ccc(S(=O)(=O)NC(=O)c3ccc(N4CCN(CC5=C(c6ccc(Cl)cc6)CCCCC5)CC4)cc3Oc3cccc4[nH]ccc34)cc2[N+](=O)[O-])CC1 [Example 147, 4-(4-{[2-(4-chlorophenyl)cyclohept-1-en-1-yl]methyl}piperazin-1-yl)-2-(1H-indol-4-yloxy)-N-({4-[(1-methylpiperidin-4-yl)amino]-3-nitrophenyl}sulfonyl)benzamide] | >1284.0 | 1895
CN1CCC(Nc2ccc(S(=O)(=O)NC(=O)c3ccc(N4CCN(CC5=C(c6ccc(Cl)cc6)CCCCCC5)CC4)cc3Oc3cccc4[nH]ccc34)cc2[N+](=O)[O-])CC1 [Example 146, 4-(4-{[2-(4-chlorophenyl)cyclooct-1-en-1-yl]methyl}piperazin-1-yl)-2-(1H-indol-4-yloxy)-N-({4-[(1-methylpiperidin-4-yl)amino]-3-nitrophenyl}sulfonyl)benzamide] | >14.9 | 145
O=C(NS(=O)(=O)c1ccc(NCCCN2CCCC2)c([N+](=O)[O-])c1)c1ccc(N2CCN(CC3=C(c4ccc(Cl)cc4)CCCCCC3)CC2)cc1Oc1cccc2[nH]ccc12 [Example 142, 4-(4-{[2-(4-chlorophenyl)cyclooct-1-en-1-yl]methyl}piperazin-1-yl)-2-(1H-indol-4-yloxy)-N-({3-nitro-4-[(3-pyrrolidin-1-ylpropyl)amino]phenyl}sulfonyl)benzamide] | 27.8 | >185
CN1CCC(Nc2ccc(S(=O)(=O)NC(=O)c3ccc(N4CCN(CC5=C(c6ccc(Cl)cc6)CC(C)(C)OC5)CC4)cc3Oc3ccc4[nH]ccc4c3)cc2[N+](=O)[O-])CC1 [Example 150, 4-(4-{[4-(4-chlorophenyl)-6,6-dimethyl-5,6-dihydro-2H-pyran-3-yl]methyl}piperazin-1-yl)-2-(1H-indol-5-yloxy)-N-({4-[(1-methylpiperidin-4-yl)amino]-3-nitrophenyl}sulfonyl)benzamide] | 667 | 509
CN1CCC(Nc2ccc(S(=O)(=O)NC(=O)c3ccc(N4CCN(CC5=C(c6ccc(Cl)cc6)CC(C)(C)CC5)CC4)cc3Oc3cccc4[nH]ccc34)cc2[N+](=O)[O-])CC1 [Example 103, 4-(4-{[2-(4-chlorophenyl)-4,4-dimethylcyclohex-1-en-1-yl]methyl}piperazin-1-yl)-2-(1H-indol-4-yloxy)-N-({4-[(1-methylpiperidin-4-yl)amino]-3-nitrophenyl}sulfonyl)benzamide] | 2096.1 | 2305
CN(C)CCCNc1ccc(S(=O)(=O)NC(=O)c2ccc(N3CCN(CC4=C(c5ccc(Cl)cc5)CCC(C)(C)C4)CC3)cc2Oc2cccc3[nH]ccc23)cc1[N+](=O)[O-] [Example 56, 4-(4-{[2-(4-chlorophenyl)-5,5-dimethylcyclohex-1-en-1-yl]methyl}piperazin-1-yl)-N-[(4-{[3-(dimethylamino)propyl]amino}-3-nitrophenyl)sulfonyl]-2-(1H-indol-4-yloxy)benzamide] | 48.2 | 554
